Holding throughout (type): in vivo
In experiment [1] the test system is trained panelists. Put plainly: Sensory evaluation of umami in 0.05% MSG base (trained panel, scale -5 to 5). An excerpt: (§1) A panel consisting of 25 trained panelists evaluated samples at 5, 10 or 20 ppm for taste properties (salt and/or umami, or KCl taste) on a scale of −5 to 5 (−5 denoted strong masking effect and 5 denoted strong enhancing effect, 0 being the intensity of a reference water solution containing 0.25% NaCl or 0.25% KCl or 0.05% MSG or 1.5% chicken broth base). A panel consisted of 25 trained panelists evaluated samples at 5 ppm for taste properties (salt and/or umami) on a scale of −5 to 5 (−5 denoted strong masking effect and 5 denoted strong enhancing effect, 0 being the intensity of a reference water solution containing 0.25% NaCl or 0.05% MSG or 1.5% chicken broth base). • 1) Sensory Evaluation

The test system of experiment [2] is trained panelists. As to the kind of experiment: Sensory evaluation of saltiness in 0.25% NaCl base (trained panel, scale -5 to 5).
Excerpt: as §1

The subject of experiment [3] is trained panelists. Put plainly: Sensory evaluation of saltiness and KCl taste in 0.25% KCl base (trained panel, scale -5 to 5). The note with it: 0.25% KCl base, 20 ppm. An excerpt: A panel consisting of 25 trained panelists evaluated samples at 5, 10 or 20 ppm for taste properties (salt and/or umami, or KCl taste) on a scale of −5 to 5 (−5 denoted strong masking effect and 5 denoted strong enhancing effect, 0 being the intensity of a reference water solution containing 0.25% NaCl or 0.25% KCl or 0.05% MSG or 1.5% chicken broth base).

As to `O=C(NCCO)c1ccc(O)cc1` [Compound III], the umami enhancement entry is reported as “enhanced umami” in the experiment with trained panelists [1] (5 ppm, with nose-clip) and “enhanced umami” with trained panelists [1] (5 ppm, without nose-clip). Further, the saltiness enhancement entry in the experiment with trained panelists [2] (5 ppm, with nose-clip) is “significantly enhanced saltiness”; in the experiment on trained panelists [2] (5 ppm, without nose-clip), “significantly enhanced saltiness”.

`O=C(NCCO)c1ccccc1` [Compound II]: the umami enhancement entry is given as “enhanced” in the experiment with trained panelists [1] (5 ppm, with nose-clip) and “enhanced umami” in the experiment with trained panelists [1] (5 ppm, without nose-clip). Further, the saltiness enhancement result in the experiment on trained panelists [2] (5 ppm, with nose-clip) was “significantly enhanced saltiness”; in the experiment with trained panelists [2] (5 ppm, without nose-clip), “enhanced saltiness”.

`O=C(/C=C/c1ccccc1)NCCO` [Compound IV]: the umami enhancement result in the experiment on trained panelists [1] (10 ppm, with nose-clip) is listed as “enhanced umami”; with trained panelists [1] (10 ppm, without nose-clip), “enhanced umami”. The saltiness enhancement result in the experiment on trained panelists [2] (10 ppm, with nose-clip) is on record as “significantly enhanced saltiness”; in the experiment with trained panelists [2] (10 ppm, without nose-clip), “enhanced saltiness”.

Turning to `N=C(N)NCCCC(NC(=O)/C=C/c1ccccc1)C(=O)O` (stereo not drawn) [Compound VI], the umami enhancement result in the experiment on trained panelists [1] (5 ppm, without nose-clip) is recorded as “significantly enhanced umami intensity”; with trained panelists [1] (10 ppm, with nose-clip), “enhanced”; with trained panelists [1] (10 ppm, without nose-clip), “enhanced”. The saltiness enhancement result is “significantly enhanced saltiness intensity” with trained panelists [2] (5 ppm, with nose-clip); “enhanced saltiness” in the experiment with trained panelists [2] (10 ppm, with nose-clip); “enhanced saltiness” with trained panelists [2] (10 ppm, without nose-clip).

For the compound `O=C(/C=C/C=C/c1ccc2c(c1)OCO2)NCCO` [Compound V], the umami enhancement entry in the experiment on trained panelists [1] (20 ppm, with nose-clip) is listed as “enhanced umami”; with trained panelists [1] (20 ppm, without nose-clip), “enhanced umami”. Further, the KCl taste masking entry in the experiment with trained panelists [3] (with nose-clip) and in the experiment with trained panelists [3] (without nose-clip) was “significantly masked KCl taste” each time. Moreover, the saltiness enhancement entry in the experiment on trained panelists [3] (with nose-clip) and in the experiment with trained panelists [3] (without nose-clip) was “enhanced saltiness” throughout.
